Values after ≈ are worked out from the molar mass of the structure shown. Like-named read-outs stand apart in the source and are kept apart here.
Tests used:
Diplococcus pneumoniae = assay: Antibacterial activity, standard agar dilution test; type: cell-based; settings: Streptococcus pneumoniae, 16 h, 1 strain, Brain Heart Infusion, 37° C., 16-18 hours, read-out: Inhibition
Description: (§1) The above antibacterial spectrum was obtained by a standard agar dilution test with the following media and conditions:
(§2) Difco Brain Heart Infusion Medium was used for all test bacteria except P. multocida and Hemophilus species which were grown in Difco Blood Agar Base with 5% defibrinated rabbit blood. All were grown aerobically at 37° C. (except Hemophilus species, grown anaerobically) 16-18 hours. Inocula were grown overnite (16-18 hours) at 37° C. and used to seed agar at the rate of 0.025 ml. of 10^^-3 dilution (approximately 2500 to 25,000 bacteria per drop of inoculum).

Pasteurella multocida = assay: as above; type: cell-based; settings: 16 h, 1 strain, Blood Agar Base with 5% defibrinated rabbit blood, 37° C., 16-18 hours, read-out: Inhibition
Description: as §1, §2

Proteus mirabilis [1] = assay: as above; type: cell-based; settings: 16 h, 3 strains, Brain Heart Infusion, 37° C., 16-18 hours, read-out: Inhibition
Description: as §1, §2

Proteus morgani = assay: as above; type: cell-based; settings: 16 h, 3 strains, Brain Heart Infusion, 37° C., 16-18 hours, read-out: Inhibition
Description: as §1, §2

Proteus vulgaris [2] = assay: as above; type: cell-based; settings: 16 h, 3 strains, Brain Heart Infusion, 37° C., 16-18 hours, read-out: Inhibition
Description: as §1, §2

Pseudomonas aeruginosa = assay: as above; type: cell-based; settings: 16 h, 5 strains, Brain Heart Infusion, 37° C., 16-18 hours, read-out: Inhibition
Description: as §1, §2

Serratia marcescens = assay: as above; type: cell-based; settings: 16 h, 2 strains, Brain Heart Infusion, 37° C., 16-18 hours, read-out: Inhibition
Description: as §1, §2

Staphylococcus aureus = assay: as above; type: cell-based; settings: 16 h, 1 strain, Brain Heart Infusion, 37° C., 16-18 hours, read-out: Inhibition
Description: as §1, §2

[3] = tested on: Streptococcus hemolyticus; assay: as above; type: cell-based
Description: as §1, §2

Escherichia coli [4] = assay: In vivo testing in infected mice; settings: IP challenge 79 LD50, read-out: Activity (CD50)
Description: (§3) In vivo testing of U-44,590 in mice infected with selected microorganisms is as follows: […]

Proteus mirabilis [5] = assay: In vivo testing in infected mice; settings: IP challenge 1259 LD50, read-out: Activity (CD50)
Description: as §3

Proteus vulgaris [6] = assay: In vivo testing in infected mice
Description: as §3

Salmonella flexneri = assay: In vivo testing in infected mice; settings: IP challenge 40 LD50, read-out: Activity (CD50)
Description: as §3

[7] = tested on: Streptococcus hemolyticus; assay: In vivo testing in infected mice; settings: Streptococcus pyogenes, Oral route, IP challenge 100 LD50, read-out: Activity (CD50)
Description: as §3

Herpes simplex virus = assay: Antiviral activity in mice inoculated intravenously with Herpes simplex virus; type: in vivo; settings: 400, 200 and 100 mg./kg./dose subcutaneously, four times daily, days 0-4; 40 LD50 virus intravenously
Description: The following is an example of the antiviral activity of antibiotic U-44,590. The antibiotic is administered subcutaneously to mice which are inoculated intravenously with Herpes simplex virus. Treatment is initiated 2 hours prior to viral infection and is followed by treatment four times daily for five consecutive days. A detailed account of the materials and methods and results are as follows:
Male mice, weighing approximately 20 gm. each, are divided into 4 groups of 20. Group 1 is treated with saline, Group 2 with 400 mg./kg./dose (mkd) U-44,590, Group 3 with 200 mkd U-44,590, and Group 4 with 100 mkd U-44,590. The antibiotic is dissolved in saline and administered subcutaneously in the nape of the neck at 8 a.m., 12 noon, 4 p.m., and 8 p.m. on days 0, 1, 2, 3, and 4. Herpes virus at 10^^-1.5 dilution, 0.05 ml/mouse, equivalent to a viral dose of 40 LD50 s, is inoculated into the tail vein at 10 a.m. on day 0. Paralysis and death are recorded daily.
Hind leg paralysis usually preceded death by 1-2 days. All mice died that became paralyzed. Death pattern of the 4 groups, as shown in the curves which follow, illustrates the dose response obtained.

Herpes virus = assay: Activity against DNA viruses (statement); settings: for example, the Herpes virus
Escherichia coli [8] = assay: Antibacterial activity (statement)
[9] = tested on: Gram-negative and Gram-positive bacteria; assay: Antibacterial activity (statement); settings: for example, Streptococcus hemolyticus, Klebsiella, Salmonella Sp., Serratia marcescens, Pasteurella multocida, Hemophilus Sp., Proteus morgani, Proteus rettgeri
Solubilities = type: physicochemical

`CN1CN([C@H]2C[C@H](O)[C@@H](CO)O2)C(=O)NC1=O` [U-44,590, 1(2-deoxy-β-D-erythro-pentofuranosyl)-5,6-dihydro-5-methyl-s-triazine-2,4(1H,3H)-dione] gave an MIC (Diplococcus pneumoniae) of 500 mg/L (≈ 2040 µM), an MIC (Pasteurella multocida) of 125 mg/L (≈ 510 µM) and an MIC (Proteus mirabilis [1]) greater than 1000 mg/L. It also gave an MIC (Proteus morgani) of 62.5 to 250 mg/L (≈ 255 to 1020 µM), an MIC (Proteus vulgaris [2]) greater than 1000 mg/L and an MIC (Pseudomonas aeruginosa) greater than 1000 mg/L. For the same compound, the MIC (Serratia marcescens) was 125 mg/L (≈ 510 µM), the MIC (Staphylococcus aureus) was greater than 1000 mg/L and the “Activity against Streptococcus hemolyticus” value [3] was “active against Streptococcus hemolyticus”. For the same compound, the MIC ([3]; Streptococcus pyogenes, 16 h, Streptococcus hemolyticus, 1 strain, Brain Heart Infusion, 37° C., 16-18 hours, read-out: Inhibition) was 15.2 mg/L (≈ 62 µM), the ED50 (Escherichia coli [4]; Oral route) was 218 mg/kg and the ED50 (Escherichia coli [4]; sc, Subcutaneous route) was 141 mg/kg. It also gave an ED50 (Proteus mirabilis [5]; Oral route) of 101 mg/kg, an ED50 (Proteus mirabilis [5]; sc, Subcutaneous route) of 152 mg/kg and an ED50 (Proteus vulgaris [6]; po, IP challenge 79 LD50, read-out: Activity (CD50)) of less than 62.5 mg/kg. For the same compound, the ED50 (Proteus vulgaris [6]; po, IP challenge 150 LD50 (line without organism name below Proteus vulgaris), read-out: Activity (CD50)) was roughly 30 mg/kg, the ED50 (Proteus vulgaris [6]; sc, Subcutaneous route, IP challenge 79 LD50, read-out: Activity (CD50)) was 100 mg/kg and the ED50 (Salmonella flexneri; Oral route) was 62.5 mg/kg. For the same compound, the ED50 (Salmonella flexneri; sc, Subcutaneous route) was 38 mg/kg, the ED50 [7] was greater than 160 mg/kg and the “Death pattern, statistical analysis of the results at day 11” value (Herpes simplex virus) was “all 3 treated groups are significantly different from the control group (1)”. For the same compound, the “Activity against DNA viruses” value (Herpes virus) was “active against DNA viruses”, the “Activity against Escherichia coli” value (Escherichia coli [8]) was “active against Escherichia coil” and the “Effect on growth of bacteria” value [9] was “adversely affecting the growth of Gram-negative and Gram-positive bacteria”. For the same compound, the Solubility (Solubilities; in Me2 CO, EtOAc, hydrocarbons, CH2 Cl2 and CHCl3) was “relatively insoluble” and the Solubility (Solubilities; in water, and lower alcohols, for example, methanol and ethanol) was “Highly soluble”.

— patent publication US4022889A, “Therapeutic compositions of antibiotic U-44,590 and methods for using the same” (The Upjohn Company, priority 1975, dated 1977)
